Earlier results, collected in patent US20100055040A1, “Optical Imaging Contrast Agents” (priority 2005, published 2010).

How the values were obtained:
[1] = gastrointestinal tract
ulcerated gastric mucosa = details: humans; ulcerated vs unulcerated gastric mucosa

absorption by the body [1]: only minimally absorbed
Substance: α-D-glucopyranoside, β-D-fructofuranosyl-, octakis-(hydrogen sulfate), aluminum complex [Sucralfate]
times more sucralfate binds to ulcerated gastric mucosa than to unulcerated mucosa (ulcerated gastric mucosa): six to seven
